Laboratory results as given in paper PMC6238539, “Discovery of a cofactor-independent inhibitor of Mycobacterium tuberculosis InhA” (Life Science Alliance, 2018).
≈ marks a conversion by molar mass, not a printed value. Read-outs that look alike come from different tables or passages of the source.

Columns and labels:
M. tuberculosis InhA [1] = molecular target: T1, M. tuberculosis InhA (Mycobacterium tuberculosis, UniProt P9WGR1); assay: InhA in vitro inhibition assay; assay type: biochemical
M. tuberculosis H37Rv [2] = assay: microbe, parasite or virus in culture; assay type: cell-based, Mycobacterium tuberculosis; settings: Mycobacterium tuberculosis, H37RV; whole-cell M. tuberculosis
[3] = test system: intracellular M. tuberculosis in THP-1 cells; assay: microbe, parasite or virus in culture; assay type: cell-based; settings: Mycobacterium tuberculosis
in vitro [4] = assay type: cell-based; settings: human; read-out: HepG2 cytotoxicity IC50
Experimental: HepG2 human liver cells (ATCC HB 8065) were propagated in DMEM containing either 25 mM glucose or 10 mM galactose plus 10% vol/vol FBS, 1 mM sodium pyruvate, 2 mM Corning glutagro, 100 U/ml penicillin, and 100 μg/ml streptomycin. The cells were seeded in 384-well plates at 1,800 cells per well and incubated in a humidified incubator at 37°C, 5% CO2. Compounds were solubilized in DMSO and assayed using a 10-point threefold serial dilution. Compounds were added 24 h post cell seeding to a final assay concentration of 1% DMSO and highest compound concentration of 100 μM. The cells were incubated for 72 h and viability measured using CellTiter-Glo reagent (Promega) and reading RLU. Growth inhibition curves were fitted using the Levenberg–Marquardt algorithm. The IC50 was defined as the compound concentration that produced 50% of the inhibitory response against HepG2 cells.

M. tuberculosis InhA [5] = molecular target: T1, M. tuberculosis InhA; assay: biochemical; assay type: binding
M. tuberculosis H37Rv [6] = assay: Kill kinetics under replicating conditions; assay type: cell-based, Mycobacterium tuberculosis
[7] = test system: M. tuberculosis Erdman TMCC 107; assay: microbe, parasite or virus in culture; assay type: cell-based; settings: Mycobacterium tuberculosis, read-out: potency (MIC) against M. tuberculosis Erdman TMCC 107
M. tuberculosis Erdman [8] = assay type: in vivo, Mycobacterium tuberculosis; settings: for reduction in M. tuberculosis lung burdens / reduction in M. tuberculosis spleen burdens: 9-d treatment; for Mean ± SEM Log10 CFU: dose escalation study (Table S4), day 22
M. tuberculosis Erdman [9] = assay type: in vivo, Mycobacterium tuberculosis; settings: 100 mg/kg
[10] = for Ratio Plasma AUC0-last / Dose / Ratio Plasma Cmax/Dose: C57Bl/6 mice
[11] = human serum
[12] = mouse plasma
in vivo = settings: female; for AUC(0-t): AUClast
in vitro [13] = settings: human
[14] = BALB/c, mouse, po, 10 mg/kg, BALB/c (infected) mice, oral 10 mg/kg QD-3 wk, plasma
[15] = BALB/c, mouse, po, 50 mg/kg, BALB/c (infected) mice, oral 50 mg/kg QD-3 wk, plasma
[16] = C57BL/6, mouse, po, 10 mg/kg, C57Bl/6 mice, oral 10 mg/kg QD-4 days, plasma
[17] = C57BL/6, mouse, po, 10 mg/kg, C57Bl/6 mice, oral 10 mg/kg QD-4 days, lung
[18] = C57BL/6, mouse, po, 25 mg/kg, C57Bl/6 mice, oral 25 mg/kg QD-4 days, plasma
[19] = C57BL/6, mouse, po, 25 mg/kg, C57Bl/6 mice, oral 25 mg/kg QD-4 days, lung
[20] = C57BL/6, mouse, po, 50 mg/kg, C57Bl/6 mice, oral 50 mg/kg QD-4 days, plasma
[21] = C57BL/6, mouse, po, 50 mg/kg, C57Bl/6 mice, oral 50 mg/kg QD-4 days, lung
[22] = CD-1, mouse, iv, 5 mg/kg, CD-1 mice, IV 5 mg/kg, single dose, plasma
[23] = CD-1, mouse, po, 10 mg/kg, CD-1 mice, oral 10 mg/kg, single dose, lung
[24] = CD-1, mouse, po, 10 mg/kg, CD-1 mice, oral 10 mg/kg, single dose, plasma

T1 sequence (P9WGR1 whole entry, looked up): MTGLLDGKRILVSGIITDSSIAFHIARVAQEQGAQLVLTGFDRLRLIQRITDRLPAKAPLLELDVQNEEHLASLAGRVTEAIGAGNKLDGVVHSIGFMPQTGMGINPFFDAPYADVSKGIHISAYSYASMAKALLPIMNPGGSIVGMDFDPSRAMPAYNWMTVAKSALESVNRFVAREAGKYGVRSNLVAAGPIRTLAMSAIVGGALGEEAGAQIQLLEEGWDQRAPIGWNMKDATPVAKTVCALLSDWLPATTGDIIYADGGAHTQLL

For `CCS(=O)(=O)N1N=Cc2ccc(Oc3ccc(C(F)(F)F)cc3/C=N/O)cc2B1O` [AN12855], the IC50 (M. tuberculosis InhA [1]) was 30 nM, the IC90 (M. tuberculosis H37Rv [2]) was 90 ± 50 nM and the IC50 [3] was 21 ± 3 nM. The IC90 [3] was 40 ± 10 nM, the IC50 (in vitro [4]) was over 100000 nM and the Kd (M. tuberculosis InhA [5]; cofactor: None) was 77 nM. For the same molecule, the “N (stoichiometry of binding)” value (M. tuberculosis InhA [5]; cofactor: None) was 0.58 ± 0.014, the “∆H” value (M. tuberculosis InhA [5]; cofactor: None) was −17,740 ± 607 cal/mol and the “∆S” value (M. tuberculosis InhA [5]; cofactor: None) was −27 cal/mol/deg. The “binding to InhA” value (M. tuberculosis InhA [5]; in the presence of NADH) was “unable to bind”, the bactericidal activity (M. tuberculosis H37Rv [6]) was “concentration-dependent bactericidal activity” and the “time to reach the limit of detection” value (M. tuberculosis H37Rv [6]; replicating conditions, 10× the IC90) was 7 days. For the same molecule, the MIC ([7]; with 4% human serum albumin) was 2.3 µM (≈ 1.01 µg/mL), the MIC ([7]; without human serum albumin) was 0.28 µM (≈ 0.124 µg/mL) and the “reduction in M. tuberculosis lung burdens” value (M. tuberculosis Erdman [8]; 10 mg/kg) was 2.3 log10. For the same molecule, the “reduction in M. tuberculosis spleen burdens” value (M. tuberculosis Erdman [8]; 10 mg/kg) was 2.1 log10, the “reduction in M. tuberculosis lung burdens” value (M. tuberculosis Erdman [8]; 25 mg/kg) was 2.7 log10 and the “reduction in M. tuberculosis spleen burdens” value (M. tuberculosis Erdman [8]; 25 mg/kg) was 3.2 log10. The “reduction in M. tuberculosis lung burdens” value (M. tuberculosis Erdman [8]; 50 mg/kg) was 3.7 log10, the “reduction in M. tuberculosis spleen burdens” value (M. tuberculosis Erdman [8]; 50 mg/kg) was 3.6 log10 and the “Mean ± SEM Log10 CFU” value (M. tuberculosis Erdman [8]; lung, 50 mg/kg) was 5.8 ± 0.05 Log10 CFU. For the same molecule, the “Mean ± SEM Log10 CFU” value (M. tuberculosis Erdman [8]; lung, 100 mg/kg) was 5.0 ± 0.13 Log10 CFU, the “Mean ± SEM Log10 CFU” value (M. tuberculosis Erdman [8]; lung, 200 mg/kg) was 5.6 ± 0.06 Log10 CFU and the “Mean ± SEM Log10 CFU” value (M. tuberculosis Erdman [8]; organ Lung, 50 mg/kg) was 2.5 ± 0.24 Log10 CFU. For the same molecule, the “Mean ± SEM Log10 CFU” value (M. tuberculosis Erdman [8]; organ Lung, 100 mg/kg) was 2.5 ± 0.05 Log10 CFU, the “Mean ± SEM Log10 CFU” value (M. tuberculosis Erdman [8]; organ Lung, 200 mg/kg) was 3.0 ± 0.10 Log10 CFU and the “reduction in lung burdens” value (M. tuberculosis Erdman [9]; 2 weeks of treatment) was 0.47 log10 CFU. The “reduction in lung burdens” value (M. tuberculosis Erdman [9]; 4 weeks of treatment) was 0.81 log10 CFU, the “reduction in lung burdens” value (M. tuberculosis Erdman [9]; 8 weeks of treatment) was 1.73 log10 CFU and the reduction in spleens (M. tuberculosis Erdman [9]; 8 weeks of treatment) was “more than three log10 reductions”. The “Ratio Plasma AUC0-last / Dose” value ([10]; oral 10 mg/kg QD-4 days) was 1.8, the “Ratio Plasma Cmax/Dose” value ([10]; oral 10 mg/kg QD-4 days) was 0.58 and the “Ratio Plasma AUC0-last / Dose” value ([10]; oral 25 mg/kg QD-4 days) was 1.9. The “Ratio Plasma Cmax/Dose” value ([10]; oral 25 mg/kg QD-4 days) was 0.5, the “Ratio Plasma AUC0-last / Dose” value ([10]; oral 50 mg/kg QD-4 days) was 1.6 and the “Ratio Plasma Cmax/Dose” value ([10]; oral 50 mg/kg QD-4 days) was 0.3. The “total lung exposure lower than plasma AUC” value ([10]; CD-1 mice, oral 10 mg/kg) was 33%, the protein bound [11] was 88% and the protein bound [12] was 98.5%. It also gave an AUC(0-inf) (in vivo; BALB/c, mouse, po, 10 mg/kg) of 29000 ng·h/mL, a half-life (in vivo; BALB/c, mouse, po, 10 mg/kg) of 3.04 h and an AUC(0-t) (in vivo; [14]) of 28900 ng·h/mL. The Cmax (in vivo; [14]) was 8360 ng/mL, the Tmax (in vivo; [14]) was 0.5 h and the AUC(0-inf) (in vivo; BALB/c, mouse, po, 50 mg/kg) was 192000 ng·h/mL. It also gave a half-life (in vivo; BALB/c, mouse, po, 50 mg/kg) of 2.4 h, an AUC(0-t) (in vivo; [15]) of 192000 ng·h/mL and a Cmax (in vivo; [15]) of 61600 ng/mL. It also gave a Tmax (in vivo; [15]) of 0.5 h, an AUC(0-inf) (in vivo; C57BL/6, mouse, po, 10 mg/kg) of 19700 ng·h/mL and a half-life (in vivo; C57BL/6, mouse, po, 10 mg/kg) of 2.5 h. It also gave an AUC(0-t) (in vivo; [16]) of 17600 ng·h/mL, a Cmax (in vivo; [17]) of 584 ng/mL and a Cmax (in vivo; [16]) of 5790 ng/mL. It also gave a Kp (in vivo; C57BL/6, mouse, po, 10 mg/kg, Ratio (Lung / Plasma) @ 5 hr, C57Bl/6 mice, oral 10 mg/kg QD-4 days) of 0.39, a Kp (in vivo; C57BL/6, mouse, po, 10 mg/kg, Ratio (Lung / Plasma) @ 8 hr, C57Bl/6 mice, oral 10 mg/kg QD-4 days) of 0.51 and a Tmax (in vivo; [17]) of 5 h. The Tmax (in vivo; [16]) was 0.5 h, the AUC(0-inf) (in vivo; C57BL/6, mouse, po, 25 mg/kg) was 59000 ng·h/mL and the half-life (in vivo; C57BL/6, mouse, po, 25 mg/kg) was 3.52 h. It also gave an AUC(0-t) (in vivo; [18]) of 46800 ng·h/mL, a Cmax (in vivo; [19]) of 1900 ng/mL and a Cmax (in vivo; [18]) of 12600 ng/mL. It also gave a Kp (in vivo; C57BL/6, mouse, po, 25 mg/kg, Ratio (Lung / Plasma) @ 5 hr, C57Bl/6 mice, oral 25 mg/kg QD-4 days) of 0.48, a Kp (in vivo; C57BL/6, mouse, po, 25 mg/kg, Ratio (Lung / Plasma) @ 8 hr, C57Bl/6 mice, oral 25 mg/kg QD-4 days) of 0.49 and a Tmax (in vivo; [19]) of 5 h. The Tmax (in vivo; [18]) was 0.5 h, the AUC(0-inf) (in vivo; C57BL/6, mouse, po, 50 mg/kg) was 109000 ng·h/mL and the half-life (in vivo; C57BL/6, mouse, po, 50 mg/kg) was 3.76 h. The AUC(0-t) (in vivo; [20]) was 82400 ng·h/mL, the Cmax (in vivo; [21]) was 3500 ng/mL and the Cmax (in vivo; [20]) was 14900 ng/mL. The Kp (in vivo; C57BL/6, mouse, po, 50 mg/kg, Ratio (Lung / Plasma) @ 5 hr, C57Bl/6 mice, oral 50 mg/kg QD-4 days) was 0.36, the Kp (in vivo; C57BL/6, mouse, po, 50 mg/kg, Ratio (Lung / Plasma) @ 8 hr, C57Bl/6 mice, oral 50 mg/kg QD-4 days) was 0.47 and the Tmax (in vivo; [21]) was 5 h. For the same molecule, the Tmax (in vivo; [20]) was 0.5 h, the half-life (in vivo; CD-1, mouse) was 3.5 h and the AUC(0-inf) (in vivo; CD-1, mouse, iv, 5 mg/kg) was 14400 ng·h/mL. The MRT inf (in vivo; CD-1, mouse, iv, 5 mg/kg) was 3.64 h, the Vd (in vivo; CD-1, mouse, iv, 5 mg/kg) was 1.27 L/kg and the clearance (in vivo; CD-1, mouse, iv, 5 mg/kg) was 5.8 mL/min/kg. For the same molecule, the half-life (in vivo; CD-1, mouse, iv, 5 mg/kg) was 3.46 h, the AUC(0-t) (in vivo; [22]) was 14300 ng·h/mL and the Cmax (in vivo; [22]) was 6320 ng/mL. The AUC(0-inf) (in vivo; CD-1, mouse, po, 10 mg/kg) was 15500 ng·h/mL, the bioavailability (in vivo; CD-1, mouse, po, 10 mg/kg) was 53% and the half-life (in vivo; CD-1, mouse, po, 10 mg/kg) was 3.27 h. It also gave an AUC(0-t) (in vivo; [23]) of 10400 ng·h/mL, an AUC(0-t) (in vivo; [24]) of 15400 ng·h/mL and a Cmax (in vivo; [23]) of 1020 ng/mL. It also gave a Cmax (in vivo; [24]) of 1740 ng/mL, a Tmax (in vivo; [23]) of 4 h and a Tmax (in vivo; [24]) of 0.5 h. It also gave an IC50 (in vitro [13]) of over 50000 nM.
